From patent US6737383B1, “Herbicidal oxadiazolidines” (priority 1999, dated 2004)

What was measured:
crabgrass = experiment: Test B pre/postemergence crabgrass; assay type: in vivo, Digitaria sanguinalis
How it was run: (§1)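 Test chemicals in a non-phytotoxic solvent mixture with surfactant were sprayed preemergence onto planted seeds and postemergence onto plants 2 to 18 cm tall (1- to 4-leaf stage). After twelve to sixteen days in a greenhouse, injury was visually rated against untreated controls from 0 (no effect) to 10 (complete control).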

duck salad = experiment: Test B flood test duck salad; assay type: in vivo, Heteranthera limosa
How it was run: (§2)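 Read-out is a visual response score from 0 (no effect) to 10 (complete control), assigned by comparison with untreated controls. Treatment was applied at the 2-leaf stage, and plants stayed in the greenhouse for twelve to sixteen days before scoring.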

bamyardgrass = experiment: Test B flood test barnyardgrass; assay type: in vivo, Echinochloa crus-galli
How it was run: as §2

purple nutsedge = experiment: Test B pre/postemergence purple nutsedge; assay type: in vivo, Cyperus rotundus
How it was run: as §1

[1] = Preemergence, Rate 62 g/ha, scale of 0 to 10 where 0 is no effect and 10 is complete control
[2] = Preemergence, Rate 500 g/ha, scale of 0 to 10 where 0 is no effect and 10 is complete control
[3] = Rate 62 g/ha, Postemergence, scale of 0 to 10 where 0 is no effect and 10 is complete control
[4] = Rate 125 g/ha, Postemergence, scale 0 to 10
[5] = Rate 500 g/ha, Postemergence, scale 0 to 10
[6] = Rate 62 g/ha, headed Pre-emergence (flood test species), scale 0 to 10 (0 no effect, 10 complete control)
[7] = Rate 125 g/ha, Pre-emergence, flood test species, scale 0 to 10 where 0 is no effect and 10 is complete control
[8] = Rate 250 g/ha, Pre-emergence, flood-test species, scale 0 to 10, 0 is no effect, 10 is complete control
[9] = Rate 500 g/ha, headed Pre-emergence (flood test species), scale 0 to 10 (0 no effect, 10 complete control)
[10] = Preemergence, Rate 31 g/ha, visual rating, scale 0 to 10 (0 no effect, 10 complete control)
[11] = Preemergence, Rate 250 g/ha, scale of 0 to 10 where 0 is no effect and 10 is complete control
[12] = Rate 31 g/ha, Postemergence, scale 0 to 10
[13] = Rate 125 g/ha, Preemergence, scale of 0 to 10 where 0 is no effect and 10 is complete control
[14] = Rate 31 g/ha, Pre-emergence section (flood test species), scale 0 to 10
[15] = Rate 500 g/ha, Postemergence, scale 0 to 10, 0 no effect, 10 complete control
[16] = Rate 500 g/ha, Pre-emergence, flood test species, scale 0 to 10 (0 no effect, 10 complete control)
[17] = Rate 125 g/ha, Postemergence, scale of 0 to 10 where 0 is no effect and 10 is complete control
[18] = Rate 250 g/ha, Postemergence, scale of 0 to 10 where 0 is no effect and 10 is complete control
[19] = Rate 1000 g/ha, Preemergence, scale 0 to 10 (0 no effect, 10 complete control)
[20] = Pre-emergence, Rate 1000 g/ha, scale 0 to 10 (0 no effect, 10 complete control)
[21] = Rate 62 g/ha, Postemergence, scale 0 to 10 (0 no effect, 10 complete control)
[22] = Postemergence, Rate 31 g/ha, visual rating, scale 0 to 10 (0 no effect, 10 complete control)

Row | SMILES | Crabgrass plant response rating (crabgrass; [1]) | Plant response rating, Crabgrass (crabgrass; [2]) | Crabgrass plant response rating (crabgrass; [3]) | Crabgrass plant response rating (crabgrass; [4]) | Plant response rating (0 to 10; 0 is no effect, 10 is complete control), Crabgrass (crabgrass; Rate 250 g/ha, Postemergence) | Ducksalad plant response rating (duck salad; [6]) | Ducksalad plant response rating (duck salad; [7]) | Ducksalad plant response rating (duck salad; [8]) | Barnyardgrass plant response rating (bamyardgrass; [6]) | Barnyardgrass plant response rating (bamyardgrass; [7]) | Barnyardgrass plant response rating (bamyardgrass; [8]) | Nutsedge plant response rating (purple nutsedge; [3]) | Nutsedge plant response rating (purple nutsedge; [4]) | Plant response rating (0 to 10; 0 is no effect, 10 is complete control), Nutsedge (purple nutsedge; Rate 250 g/ha, Postemergence) | Crabgrass plant response rating (crabgrass; [11]) | Crabgrass plant response rating (crabgrass; [13]) | Nutsedge plant response rating (purple nutsedge; [1]) | Nutsedge plant response rating (purple nutsedge; [11]) | Ducksalad plant response rating (duck salad; [16]) | Barnyardgrass plant response rating (bamyardgrass; [16]) | also measured
1 | Cc1ccccc1-n1c(=O)on(C(=O)N(c2ccc(Cl)cc2F)C(C)C)c1=O [Compound 195] | 3 | 9 | 0 | 0 | 2 | 0 | 0 | 0 | 0 | 0 | 0 | 0 | 0 | 0 | – | – | – | – | – | – | Crabgrass plant response rating (0 to 10 scale) (crabgrass; Preemergence, Rate 125 g/ha, 0 is no effect, 10 is complete control): 4; Crabgrass plant response rating (crabgrass; Preemergence, Rate 250 g/ha, scale 0 to 10, 0 is no effect, 10 is complete control): 5; Crabgrass plant response rating (crabgrass; [5]): 5; Plant response rating, Ducksalad (duck salad; [9]): 0; Plant response rating, Barnyardgrass (bamyardgrass; [9]): 0; Nutsedge plant response rating (purple nutsedge; [5]): 0
2 | CCCCn1c(=O)on(C(=O)N(c2ccc(F)cc2)C(C)C)c1=O [Compound 221] | 6 | – | 2 | 6 | 8 | 0 | 0 | 0 | 0 | 0 | 0 | 0 | 0 | 0 | 8 | 8 | 0 | 0 | – | – | Crabgrass plant response rating (crabgrass; [10]): 2; Crabgrass plant response rating (crabgrass; [12]): 0; Ducksalad plant response rating (duck salad; [14]): 0; Barnyardgrass plant response rating (bamyardgrass; [14]): 0; Nutsedge plant response rating (purple nutsedge; [10]): 0; Nutsedge plant response rating (purple nutsedge; [12]): 0; Nutsedge plant response rating (purple nutsedge; [13]): 0
3 | CC(C)N(C(=O)n1oc(=O)n(CC2(C)COC2)c1=O)c1ccc(F)cc1 [Compound 226] | 5 | 10 | 0 | 0 | 3 | 0 | 0 | 0 | 0 | 0 | 0 | 0 | 0 | 0 | 10 | 9 | – | – | 0 | 0 | Crabgrass plant response rating (crabgrass; [15]): 8; Nutsedge plant response rating (purple nutsedge; [15]): 4
4 | Cc1ccccc1-n1c(=O)on(C(=O)N(c2ccc(N(C)C)cc2)C(C)C)c1=O [Compound 237] | 0 | 3 | 0 | 0 | 0 | 0 | 0 | 0 | 0 | 0 | 0 | 0 | 0 | 0 | 2 | 0 | – | – | 0 | 0 | Crabgrass plant response rating (crabgrass; [15]): 0; Nutsedge plant response rating (purple nutsedge; [15]): 0
5 | Cc1ccccc1-n1c(=O)on(C(=O)N(c2ccc(C(C)(C)C)cc2)C(C)C)c1=O [Compound 270] | 0 | 0 | – | – | – | 0 | 0 | 0 | 0 | 0 | 0 | – | – | – | 0 | 0 | 0 | 0 | 0 | 0 | Crabgrass plant response rating (crabgrass; [17]): 0; Plant response rating, Crabgrass (crabgrass; [18]): 0; Crabgrass plant response rating (crabgrass; [15]): 0; Plant response rating, Nutsedge (purple nutsedge; [2]): 0; Nutsedge plant response rating (purple nutsedge; [17]): 0; Nutsedge plant response rating (purple nutsedge; [13]): 0; Plant response rating, Nutsedge (purple nutsedge; [18]): 0; Nutsedge plant response rating (purple nutsedge; [15]): 0
6 | C=CCn1c(=O)on(C(=O)N(c2ccc(F)cc2)C(C)C(=O)OCC)c1=O (stereo not drawn) [Compound 279] | – | 1 | – | – | – | – | 0 | 0 | – | 0 | 0 | – | – | – | 0 | 0 | – | 0 | 0 | 0 | Crabgrass plant response rating (crabgrass; [17]): 0; Plant response rating, Crabgrass (crabgrass; [18]): 0; Crabgrass plant response rating (crabgrass; [15]): 0; Plant response rating, Crabgrass (crabgrass; [19]): 4; Ducksalad plant response rating (duck salad; [20]): 0; Barnyardgrass plant response rating (bamyardgrass; [20]): 0; Nutsedge plant response rating (purple nutsedge; Postemergence, Rate 1000 g/ha, scale 0 to 10 (0 no effect, 10 complete control)): 0; Nutsedge plant response rating (purple nutsedge; [17]): 0; Plant response rating, Nutsedge (purple nutsedge; [18]): 0; Nutsedge plant response rating (purple nutsedge; [15]): 0; Plant response rating, Nutsedge (purple nutsedge; [19]): 0
7 | CC(C)N(C(=O)n1oc(=O)n(C2CCCCO2)c1=O)c1ccc(F)cc1 (stereo not drawn) [Compound 311] | 0 | – | – | – | – | 0 | 0 | 0 | 0 | 0 | 0 | – | – | – | 0 | – | 0 | 0 | 0 | 0 | Crabgrass plant response rating (0 to 10 scale) (crabgrass; Preemergence, Rate 125 g/ha): 0; Crabgrass plant response rating (crabgrass; [2]): 0; Crabgrass plant response rating (crabgrass; [21]): 0; Crabgrass plant response rating (crabgrass; [17]): 0; Plant response rating, Crabgrass (crabgrass; [18]): 0; Nutsedge plant response rating (0 to 10 scale) (purple nutsedge; Preemergence, Rate 125 g/ha): 0; Nutsedge plant response rating (purple nutsedge; [2]): 0; Nutsedge plant response rating (purple nutsedge; [21]): 0; Nutsedge plant response rating (purple nutsedge; [17]): 0; Plant response rating, Nutsedge (purple nutsedge; [18]): 0
8 | Cc1cccc(C)c1-n1c(=O)on(C(=O)N(c2ccc(Cl)cc2Cl)C2CCC2)c1=O [Compound 318] | 0 | – | – | – | – | 0 | 0 | 0 | 0 | 0 | 0 | – | – | – | 0 | – | 0 | – | – | – | Crabgrass plant response rating (crabgrass; [22]): 0; Crabgrass plant response rating (crabgrass; [10]): 0; Crabgrass plant response rating (0 to 10 scale) (crabgrass; Preemergence, Rate 125 g/ha): 0; Crabgrass plant response rating (crabgrass; [21]): 0; Crabgrass plant response rating (crabgrass; [17]): 0; Plant response rating, Crabgrass (crabgrass; [18]): 0; Ducksalad plant response rating (duck salad; [14]): 0; Barnyardgrass plant response rating (bamyardgrass; [14]): 0; Nutsedge plant response rating (purple nutsedge; [22]): 0; Nutsedge plant response rating (0 to 10 scale) (purple nutsedge; Preemergence, Rate 125 g/ha): 0; Nutsedge plant response rating (purple nutsedge; [21]): 0; Nutsedge plant response rating (purple nutsedge; [17]): 0; Plant response rating, Nutsedge (purple nutsedge; [18]): 0
